Data set [1] relates to MPCs. The conditions noted are these: cited from earlier work; for Promotion of chondrogenesis of MPCs: absent growth factors or other chondroinductive supplements.
The test system of data set [2] is MPCs. The data set can be described thus: qPCR gene expression of MPC pellets (chondrogenic differentiation). The format is cell-based, human. Particulars: for Expression of BMP13: over untreated controls. On the procedure:
(§1) Stro1-selected human MPCs were prepared by Lonza (Walkersville, USA) for Mesoblast Ltd (Melbourne, Australia) according to the isolation procedure described by Gronthos et al. MPCs were cultured in alphaMEM supplemented with 100 U/ml penicillin, 100 μg/ml streptomycin (Gibco/Invitrogen Carlsbad, Calif., USA), 10% batch tested foetal bovine serum (FBS), 2 mM L-Glutamine, 1 mM Sodium Pyruvate, and 100 μM L-ascorbate-2-Phosphate. Tissue culture flasks were maintained at 37° C. in 5% CO2 in an atmosphere with 95% humidity. Upon reaching 70% confluence MPCs were passaged, replating at 2000 cells/cm2.
(§2) Chondrogenic differentiation was compared for MPCs cultured in maintenance medium and treated with PPS, HA, HA-PPS and HA-PPSCOOH at concentrations equivalent to 5, 10 and 20 μg/ml unbound PPS. These factors were added to the cells prior to pellet formation, which was initiated by centrifuging 2×105 MPCs in a non-adherent U-bottom plate at 500 g for 10 min. MPC pellets were cultured in […] medium with media changes every 3-4 days. After 21 days, samples were taken for analysis by histological staining, DMMB assay and qPCR.
Total RNA was extracted using an RNeasy Minikit with on-column DNase treatment (Qiagen) according to the manufacturer's instructions, cDNA was synthesized from 250 ng RNA, or the equivalent volume of DNase and RNasefree water for no-RT controls, using the SuperScript® III First-Strand Synthesis System (Invitrogen). qPCR reactions were set-up in a total volume of 10 μl with 1× Platinum SYBR Green qPCR SuperMix-UDG (Invitrogen) and 0.2 μM forward and reverse primers. A 7500 Fast Real-Time PCR System (Applied Biosystems) with fast cycling parameters of 2 min at 50° C., 2 min at 95° C. then 40 cycles of 3 sec at 95° C. and 30 sec at 60° C. followed by a melt curve was used to run the samples. Data was analysed using the 2-^ΔΔct method and normalized back to untreated monolayer levels.
(In general: Quantitative PCR measures a nucleic acid by following its amplification.)

Data set [3] has as its system MPCs. Put plainly: DMMB assay for GAG content of chondrogenic MPC pellets. The format is cell-based, human. On the procedure:
as §2
Chondrogenic pellets were collected, rinsed in PBS and lysed in 1 mg/ml Papain in 100 mM sodium phosphate, 5 mM EDTA and 5 mM L-cystein (pH 6.5) overnight at 60° C. Samples of 40 μl were plated in triplicate with the addition of 10 μl 1% BSA in PBS and 50 μl 2×1,9-dimethylmethylene blue (DMMB). These were incubated at room temperature for 15 min and the absorbance at 525 nm read using a Spectramax M5 Fluorometer (Molecular Devices). Samples were normalized to DNA content as assessed by PicoGreen assay (Molecular Probes: performed according to the manufacturer's instructions).

Data set [4] concerns MPCs. The data set can be described thus: CCK8 assay of MPC proliferation. The conditions noted are these: 7 days; concentrations equivalent to 5, 10 and 20 μg/ml unbound PPS. The format is cell-based, human. On the procedure:
as §1
MPCs were seeded at a density of 2000 cells/cm2 in a 96-well plate and allowed to adhere for 4 hrs at which point the medium was exchanged for MPC maintenance medium supplemented with PPS, HA, HA-PPS and HA-PPSCOOH at concentrations equivalent to 5, 10 and 20 μg/ml unbound PPS. MPCs were cultured for 7 days with media changes every 2-3 days and the cell number determined by CCK8 assay (Sigma). Briefly, the culture medium was replaced with 100 μl MPC maintenance medium (without phenol red) containing 10% (v/v) CCX8. After 2 hrs the absorbance was read at 450 nm. All samples were performed in triplicate and normalised to blank medium without cells.
(Tetrazolium assays rely on reduction of a dye to a coloured formazan, in cell work by metabolically active cells.)

A short description of a further data set: Swelling of hydrogels. The format is physicochemical. The conditions noted are these: incorporated into the hydrogels; p<0.05. On the procedure: To determine the degree of swelling, 50 μl gels were synthesized and the dry weight obtained after freeze-drying for 24 hrs (Wd). The gels were then incubated in 500 μl PBS for 24 hrs at […]. The PBS was removed and the gels reweighed (Ws). The degree of swelling was determined by ((Ws-Wd)/Wd) using triplicate gels for each condition. Degradation of 50 μl gels was measured over a period of 3 months using triplicate samples for each condition. After synthesis, the gels were incubated in PBS/0.01% Sodium azide at 37° C. with weekly changes of buffer. At specific tirnepoints all excess PBS was removed and the gels weighed. The degree of degradation was expressed as a % of the original gel mass.

A short description of data set [5]: Rheological characterisation of PEG/HA hydrogels. The format is physicochemical. The conditions noted are these: incorporated into PEG/HA hydrogel. Here is the method: All rheological measurements were obtained using an AR G2 rheometer (TA Instruments, New Castle, Del.) in oscillatory mode using a 20 mm diameter stainless steel flat plate and lower Teflon Pelletier surface. The gels were synthesized and, upon addition of the H2O2, immediately vortexed and loaded between the plates of the rheometer with a gap measurement of 1000 μm. Gelation kinetics and final moduli were determined by timesweeps at 37° C., conducted with a controlled strain of 1% and an angular frequency of 6.28 rad/sec. Frequency sweeps were performed between 5.000E-3 to 50 rad/sec at 1% strain. Stress sweeps confirmed that this was within the linear viscoelastic region.

The subject of data set [6] is MPCs. The data set can be described thus: Live/dead staining of MPCs encapsulated in HA/PEG hydrogels. Particulars: HA/PEG hydrogels containing the substance; 24 hrs and 7 days. Type of data set: cell-based, human. Here is the method:
(§3) MPCs (P4-6) were encapsulated in gels containing 15 mg/ml HATYR, 16.5 mg/ml PEGHPA. 0.25 U/ml horseradish peroxidase (HRP) and varying amounts of hydrogen peroxide (H2O2). Soluble PPS was added into the gels prior to crosslinking at a final concentration of 5 μg/ml. HA-PPS and HA-PPSCOOH were incorporated at concentrations of 16 μg/ml and 9 μg/ml respectively giving a concentration of PPS equivalent to 5 μg/ml unbound PPS.
(§4) MPCs were resuspended to a concentration of 5×10^6 cells/ml in solution containing all of the components except H2O2 and thoroughly mixed. Crosslinking was then initiated by the addition of H2O2 and the gels spotted out into lowbinding tissue culture plates. After 15 minutes, growth media was added to the well and the cell/gel composites cultured for up to 21 days with media changes every 3-4 days.

The test system of data set [7] is MPCs. Put plainly: Collagen-II immunofluorescence of MPC/hydrogel composites. The format is cell-based, human. Particulars: compared to gels alone. On the procedure:
as §3, §4
Samples were fixed in 4% paraformaldehyde for 20 min and rinsed with PBS. To detect Collagen-II, the samples were digested with 0.01% pepsin (w/v) in 0.01M HCL (pH2) for 30 min at 37° C. and incubated in 0.1% Triton-X-100 for […] at RT° C. before blocking in 2% BSA/2% goat serum for 1 hr. A Collagen-II antibody (Abram ab3092) was used at a dilution of 1/50 for 2 hrs followed by incubation with an AlexFluor 488-conjugated secondary antibody for 1 hr. […]

Setting [8] is: absence of differentiation factors.

Like-named read-outs stand apart in the source and are kept apart here.

Turning to dextran sulphate, in the data set with MPCs [1], the “Promotion of chondrogenesis of MPCs” value is recorded as “did not show any success”.
For heparin, the “Promotion of chondrogenesis of MPCs” value in the data set with MPCs [1] is listed as “did not show any success”.
As to hyaluronic acid [HA], in the data set with MPCs [2] (setting [8]), the “Expression of BMP13” value is listed as “no effect”. Besides, the “Proteoglycan (PG) synthesis by MPCs” value in the data set with MPCs [1] (higher concentrations) is listed as “inhibited PG synthesis”; in the data set on MPCs [1] (low concentrations), “showed some stimulation”. In addition, in the data set on MPCs [3] (exposure of MPCs to substance alone), the “GAG production by MPCs” value is “did not produce any increase in GAG production”. In the data set with MPCs [4], the “MPC proliferation (CCK8 assay)” value was “did not have this effect”.
As for pentosan polysulfate [PPS], the “Change in swelling of hydrogel” value in “Swelling of hydrogels” is given as “decreased”. Moreover, in data set [5], the “Gelation process of hydrogel” value is “slows the gelation process” and the “Resulting modulus of hydrogel” value is on record as “small decrease in resulting modulus”. The “Expression of osteogenic transcription factor Runx2” value in the data set on MPCs [2] (absence of any differentiation factors, vs untreated controls) was “small but significant decrease”. In the data set on MPCs [2] (setting [8]), the “Expression of the BMP antagonist Noggin” value was “decreased” and the “Expression of BMP13” value is “significantly increased”. Also, the “Promotion of chondrogenesis of MPCs” value in the data set on MPCs [1] was “induced the in vitro proliferation and chondrogenic differentiation of MPCs”. The “Viability of encapsulated MPCs” value in the data set with MPCs [6] is reported as “retained good viability”. In the data set on MPCs [3] (% of untreated pellets, after 21 days, no additional chondrogenic factors), the “GAG content (DMMB assay)” value stood at 150%. Besides, the “Deposition of collagen-II around encapsulated MPCs” value in the data set on MPCs [7] is on record as “increased”.

The values above are taken from US10494453B2, “Conjugate compound and uses of same” (THE UNIVERSITY OF QUEENSLAND, priority 2013, dated 2019).
